Measurements: patent publication US11254652B2, “Crystalline forms of N-(4-(4-(cyclopropymethyl)piperazine-1-carbonyl)phenyl)quinoline-8-sulfonamide” (Agios Pharmaceuticals, Inc., priority 2017, dated 2022)

What was measured:
[1] = Solubility in water and simulated fluids at 37° C. (slurry, HPLC; XRPD of residual solid); assay type: physicochemical; conditions: values based on hemi-sulfate sesqui-hydrate salt; for solubility at 1 h / solubility at 2 days: 37 °C, thermodynamic from solid; for solubility at 1 h: slurry time 1 hr
Experimental: Solubility of Patterns A, B and D were measured in water. The solids were slurried in the fluids for two days and at 37° C. The supernatant was syringe filtered and used for HPLC analysis. For Patterns A and D the solubility measurement was repeated and the sample was taken after 1 hr slurry. A calibration curve was developed using Pattern A. This was not assay corrected and therefore the solubility values are based on the hemi-sulfate, sesqui-hydrate salt.
Both Patterns B and D converted to Pattern A after two days slurry. Pattern D also converted to Pattern A within 1 hour slurry in Fasted state simulated gastric fluid (FaSSGF) or water. […] This could be because of the conversion of Patterns B and D to Pattern A. The solubility data and the resulting XRPD Pattern after the measurement are reported in Table 21.

[2] = Solubility in MeOH:Water by slow heating to dissolve at fixed solvent volume; assay type: physicochemical; conditions: organic solvent or mixture, thermodynamic from solid
Experimental: Three solvent compositions were used as MeOH:Water (99:1 vol), (98:2) and (95:5). About 25 mg of Form A was weighed into 2 mL vial and 6 volume solvent was added, then slowly heated to dissolve. For experiment with 5% water, an additional test was conducted with 8 vol solvents.

`O=C(c1ccc(NS(=O)(=O)c2cccc3cccnc23)cc1)N1CCN(CC2CC2)CC1` [Form A, 1-(cyclopropylmethyl)-4-(4-(quinoline-8-sulfonamido)benzoyl)piperazin-1-ium hemisulfate sesquihydrate] showed a solubility at 1 h ([1]; FaSSGF, fassgf or other biorelevant) of 7070 µg/mL, a solubility at 2 days ([1]; FaSSGF, fassgf or other biorelevant, slurry time 2 days) of 6800 µg/mL and a Solubility ([1]; FaSSIF, slurry time 2 days, hemisulfate sesquihydrate) of 0.24 mg Solid/mL solvent. For the same compound, the solubility at 1 h ([1]; water) was 3050 µg/mL, the solubility at 2 days ([1]; water, slurry time 2 days) was 2690 µg/mL and the Solubility ([2]; MeOH:Water (95:5), 6 vol, temperature when dissolution 60 ° C.) was 167000 µg/mL. The Solubility ([2]; MeOH:Water (95:5), 8 vol, temperature when dissolution 50 ° C.) was 125000 µg/mL, the Solubility ([2]; MeOH:Water (98:2), 6 vol, temperature when dissolution 35 ° C.) was 167000 µg/mL and the Solubility ([2]; MeOH:Water (99:1), 6 vol, temperature when dissolution 23 ° C.) was greater than 167000 µg/mL.
